One may read the IC50 as the concentration needed to halve the response being measured.

SMILES strings stand for the structures. A value given as a limit tells only on which side of the number the result lay.

Consider 26 molecules from patent US8735584B2 (Merck Patent GmbH, priority 2008, dated 2014).

The target of the assay is T1, GST-Aurora A (Homo sapiens, UniProt O14965).
T1 construct: N-terminal GST fusion with full length Aurora A (1-403 amino acids); purchased Carna Biosciences 05-101
T1 sequence (O14965 1-403): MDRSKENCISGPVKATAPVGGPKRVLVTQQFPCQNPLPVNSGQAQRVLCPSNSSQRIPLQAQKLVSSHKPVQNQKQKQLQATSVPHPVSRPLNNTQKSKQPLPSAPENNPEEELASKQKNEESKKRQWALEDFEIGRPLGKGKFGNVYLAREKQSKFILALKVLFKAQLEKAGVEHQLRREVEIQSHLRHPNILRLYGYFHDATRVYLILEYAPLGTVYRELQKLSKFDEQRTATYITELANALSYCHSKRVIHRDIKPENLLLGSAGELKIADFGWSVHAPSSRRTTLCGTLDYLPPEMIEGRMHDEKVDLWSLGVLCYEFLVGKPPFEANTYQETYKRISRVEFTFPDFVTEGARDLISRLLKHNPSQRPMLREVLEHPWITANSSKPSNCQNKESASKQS
Nature of the assay: Aurora A IC50, Caliper LC3000 mobility shift assay. The following applies: LC3000 method; 15 uM ATP (the KM value); read-out: Aurora Kinase A Activity (IC50). The assay is classed as biochemical. In a few lines: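 Readout: percent conversion of FITC-LRRASLG (1 uM) to phosphopeptide, resolved electrophoretically on a Caliper LC3000, fitted against inhibitor concentration for IC50. Reaction: N-terminal GST full-length Aurora A, ATP at its KM (15 uM), pH 7.5 HEPES with MgCl2/DTT, 25 C for 90 min.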
With `O=C(CN1CCC(Nc2ccnc3[nH]c(=O)c4ccccc4c23)CC1)Nc1ccccn1` [Compound 483, 2-(4-(6-Oxo-5,6-dihydrobenzo[c][1,8]naphthyridin-1-ylamino)piperidin-1-yl)-N-(pyridin-2-yl)acetamide], the IC50 was more than 100 nM. Regarding `O=C(Cn1cc(Nc2ccnc3[nH]c(=O)c4ccccc4c23)cn1)Nc1ccc(F)cc1` [Compound 430], the IC50 is more than 100 nM.

As for `O=c1[nH]c2ncccc2c2cc(NCc3ccc(F)cc3)ccc12` [Example 43, 9-(4-Fluoro-benzylamino)-5H-benzo[c][1,8]naphthyridin-6-one], the IC50 is more than 100 nM. As for `CN1CCN(c2ccc3c(c2)c(=O)[nH]c2nccc(Nc4ccc(NC(=O)c5ccccc5)cc4)c23)CC1` [Compound 276, N-(4-(8-(4-Methylpiperazin-1-yl)-6-oxo-5,6-dihydrobenzo[c][1,8]naphthyridin-1-ylamino)phenyl)benzamide], the IC50 fell in the range of 11 to 100 nM. In the case of `O=C(Nc1ccc(Nc2ccnc3[nH]c(=O)c4ccc(F)cc4c23)cc1)c1ccccc1` [Compound 412, N-[4-(9-Fluoro-6-oxo-5,6-dihydro-benzo[c][1,8]naphthyridin-1-ylamino)-phenyl]-benzamide], the IC50 was less than 11 nM. `O=C(c1ccc(F)c(F)c1)N1CCC(CNc2ccnc3[nH]c(=O)c4ccccc4c23)CC1` [Compound 408, 1-{[1-(3,4-Difluoro-benzoyl)-piperidin-4-ylmethyl]-amino}-5H-benzo[c][1,8]naphthyridin-6-one]: the IC50 is more than 100 nM. With `CC(C(=O)Nc1ccccc1)N1CCC(Nc2ccnc3[nH]c(=O)c4ccccc4c23)CC1` (centres unmarked) [Compound 287, 2-(4-(6-oxo-5,6-dihydrobenzo[c][1,8]naphthyridin-1-ylamino)piperidin-1-yl)-N-phenylpropanamide], the IC50 was more than 100 nM. With `O=C(NCCO)c1ccc2c(=O)[nH]c3nccc(Nc4ccc(NC(=O)c5ccccc5)cc4)c3c2c1` [Compound 289, 1-(4-Benzamidophenylamino)-N-(2-hydroxyethyl)-6-oxo-5,6-dihydrobenzo[c][1,8]naphthyridine-9-carboxamide], the IC50 is 11 to 100 nM. Turning to `O=C(Nc1ccc(Oc2ccnc3[nH]c(=O)c4ccccc4c23)c(F)c1)c1cc(Cl)cnc1Cl` [Example 183, 2,5-Dichloro-N-[3-fluoro-4-(6-oxo-5,6-dihydro-benzo[c][1,8]naphthyridin-1-yloxy)-phenyl]-nicotinamide], the IC50 was more than 100 nM. In the case of `O=C(Nc1ccc(Nc2ccnc3[nH]c(=O)c4ccc(F)cc4c23)c(F)c1)c1ccc(F)cc1C(F)(F)F` [Compound 420, 4-Fluoro-N-[3-fluoro-4-(9-fluoro-6-oxo-5,6-dihydro-benzo[c][1,8]naphthyridin-1-ylamino)-phenyl]-2-trifluoromethyl-benzamide], the IC50 is less than 11 nM.

For `N#Cc1cccc(CNc2ccc3c(=O)[nH]c4ncccc4c3c2)c1` [Compound 463, 3-((6-Oxo-5,6-dihydrobenzo[c][1,8]naphthyridin-9-ylamino)methyl)benzonitrile], the IC50 is more than 100 nM. The figure for `COc1ccccc1C(=O)Nc1ccc(Nc2ccnc3[nH]c(=O)c4ccccc4c23)cc1` [Example 148, 2-Methoxy-N-[4-(6-oxo-5,6-dihydro-benzo[c][1,8]naphthyridin-1-ylamino)-phenyl]-benzamide] is less than 11 nM.

Turning to `CNC(=O)Nc1ccc(Nc2ccnc3[nH]c(=O)c4ccccc4c23)cc1` [Compound 342, 1-Methyl-3-(4-(6-oxo-5,6-dihydrobenzo[c][1,8]naphthyridin-1-ylamino)phenyl)urea], the IC50 lay in the range of 11 to 100 nM. With `O=C(Cn1cccn1)Nc1ccc(Nc2ccnc3[nH]c(=O)c4ccccc4c23)cc1` [Compound 503, N-(4-(6-Oxo-5,6-dihydrobenzo[c][1,8]naphthyridin-1-ylamino)phenyl)-2-(1H-pyrazol-1-yl)acetamide], the IC50 lay in the range of 11 to 100 nM. Turning to `O=c1[nH]c2nccc(Nc3ccc(OCc4ccccc4)cc3)c2c2ccccc12` [Compound 329, 1-(4-(Benzyloxy)phenylamino)benzo[c][1,8]naphthyridin-6(5H)-one], the half-inhibitory concentration (IC50) lay in the range of 11 to 100 nM. The same measure for `O=C(Nc1ccc(Nc2ccnc3[nH]c(=O)c4ccccc4c23)cc1)C1(C(F)(F)F)CC1` [Compound 501, N-(4-(6-Oxo-5,6-dihydrobenzo[c][1,8]naphthyridin-1-ylamino)phenyl)-1-(trifluoromethyl)cyclopropanecarboxamide]: 11 to 100 nM; for `CN(C)CCNC(=O)c1ccc2c(=O)[nH]c3nccc(Nc4ccc(NC(=O)c5ccc(F)c(F)c5)cc4)c3c2c1` [Compound 298, 1-(4-(3,4-Difluorobenzamido)phenylamino)-N-(2-(dimethylamino)ethyl)-6-oxo-5,6-dihydrobenzo[c][1,8]naphthyridine-9-carboxamide]: less than 11 nM; for `O=C(NC1CCC(Nc2ccnc3[nH]c(=O)c4ccccc4c23)CC1)c1ccc(F)c(F)c1` (centres unmarked) [Compound 402, 3,4-Difluoro-N-[4-(6-oxo-5,6-dihydro-benzo[c][1,8]naphthyridin-1-ylamino)-cyclohexy]-benzamide]: 11 to 100 nM.

Consider `O=C(Cc1cc(Nc2ccnc3[nH]c(=O)c4ccccc4c23)n[nH]1)Nc1ccccc1` [Compound 315, 2-(3-(6-Oxo-5,6-dihydrobenzo[c][1,8]naphthyridin-1-ylamino)-1H-pyrazol-5-yl)-N-phenylacetamide], for which the IC50 is more than 100 nM. `O=C(Nc1ccc(Oc2ccnc3[nH]c(=O)c4ccccc4c23)cc1)c1cccn(-c2ccc(F)cc2)c1=O` [Example 181, 1-(4-Fluoro-phenyl)-2-oxo-1,2-dihydro-pyridine-3-carboxylic acid [4-(6-oxo-5,6-dihydro-benzo[c][1,8]naphthyridin-1-yloxy)-phenyl]-amide]: the IC50 is more than 100 nM. `O=c1[nH]c2ncccc2c2cc(NCc3ccccc3F)ccc12` [Example 44, 9-(2-Fluoro-benzylamino)-5H-benzo[c][1,8]naphthyridin-6-one]: the IC50 is 11 to 100 nM.

For `O=C(CN1CCC(Nc2ccnc3[nH]c(=O)c4ccccc4c23)CC1)NC1CCCCC1` [Compound 485, N-Cyclohexyl-2-(4-(6-oxo-5,6-dihydrobenzo[c][1,8]naphthyridin-1-ylamino)piperidin-1-yl)acetamide], the IC50 is more than 100 nM. On to `O=C(Nc1ccc(Nc2ccnc3[nH]c(=O)c4c(OCCN5CCOCC5)cccc4c23)cc1)c1ccccc1` [Compound 447], for which the IC50 was 11 to 100 nM.

For the molecule `COC(=O)c1ccc2c(c1)c(=O)[nH]c1nccc(Nc3ccc(NC(=O)c4ccccc4)cc3)c12` [Compound 267, Methyl 1-(4-benzamidophenylamino)-6-oxo-5,6-dihydrobenzo[c][1,8]naphthyridine-8-carboxylate], the IC50 was less than 11 nM. As to `O=C(Nc1ccc(Nc2ccnc3[nH]c(=O)c4ccccc4c23)cc1)c1ccc(OC(F)(F)F)cc1` [Compound 401, N-[4-(6-Oxo-5,6-dihydro-benzo[c][1,8]naphthyridin-1-ylamino)-phenyl]-4-trifluoromethoxy-benzamide], the IC50 lay within 11 to 100 nM. Regarding `CN1CCN(CCNC(=O)c2ccc3c(=O)[nH]c4nccc(Nc5ccc(NC(=O)c6ccccc6)cc5)c4c3c2)CC1` [Compound 286, 1-(4-benzamidophenylamino)-N-(2-(4-methylpiperazin-1-yl)ethyl)-6-oxo-5,6-dihydrobenzo[c][1,8]naphthyridine-9-carboxamide], the 50% inhibitory concentration (IC50) lay in the range of 11 to 100 nM.
